In US10329272B2 (priority 2015, dated 2019):

Legend:
[1] = system: Magnaporthe grisea (Pyricularia oryzae); test: microbe, parasite or virus in culture; type: cell-based; details: read-out: control of Magnaporthe grisea
Gaeumannomyces graminis = test: Gaeumannomyces Graminis/Liquid Culture (Take-all of Cereals); type: cell-based; details: liquid culture, growth inhibition photometrically 4-5 days after application, compared to untreated control
Protocol: Gaeumannomyces Graminis/Liquid Culture (Take-all of Cereals)
(§1) Mycelial fragments of the fungus from cryogenic storage were directly mixed into nutrient broth (PDB potato dextrose broth). After placing a (DMSO) solution of test compound into a microtiter plate (96-well format), the nutrient broth containing the fungal spores is added. The test plates are incubated at 24° C. and the inhibition of growth is determined photometrically 4-5 days after application.

[2] = system: Monographella nivalis (Microdochium nivale); test: Monographella Nivalis (Microdochium Nivale)/Liquid Culture (Foot Rot Cereals); type: cell-based; details: liquid culture, growth inhibition photometrically 4-5 days after application, compared to untreated control
Protocol: Monographella Nivalis (Microdochium Nivale)/Liquid Culture (Foot Rot Cereals)
as §1, with “Conidia” for “Mycelial fragments”, “are” for “were”

[3] = system: Botryotinia fuckeliana (Botrytis cinerea); test: Botryotinia fuckeliana (Botrytis cinerea)/Liquid Culture (Gray Mould); type: cell-based; details: liquid culture, growth inhibition photometrically 3-4 days after application, compared to untreated control
Protocol: Biological Examples Botryotinia fuckeliana (Botrytis cinerea)/Liquid Culture (Gray Mould)
as §1, with “Conidia” for “Mycelial fragments”, “are” for “were”, “(Vogels” for “(PDB potato dextrose”, “3-4” for “4-5”

[4] = system: Mycosphaerella graminicola (Septoria tritici); test: microbe, parasite or virus in culture; type: cell-based; details: Zymoseptoria tritici, read-out: control of Mycosphaerella graminicola
Fusarium culmorum = test: microbe, parasite or virus in culture; type: cell-based; details: read-out: control of Fusarium culmorum
[5] = system: Glomerella lagenarium (Colletotrichum lagenarium); test: Glomerella Lagenarium (Colletotrichum Lagenarium)/Liquid Culture (Anthracnose); type: cell-based; details: Colletotrichum orbiculare, liquid culture, growth inhibition photometrically 3-4 days after application, compared to untreated control
Protocol: Glomerella Lagenarium (Colletotrichum Lagenarium)/Liquid Culture (Anthracnose)
as §1, with “Conidia” for “Mycelial fragments”, “are” for “were”, “measured” for “determined”, “3-4” for “4-5”

Sclerotinia sclerotiorum = test: Sclerotinia sclerotiorum/Liquid Culture (Cottony Rot); type: cell-based; details: liquid culture, growth inhibition photometrically 3-4 days after application, compared to untreated control
Protocol: Sclerotinia sclerotiorum/Liquid Culture (Cottony Rot)
Mycelia fragments of a newly grown liquid culture of the fungus are directly mixed into nutrient broth (Vogels broth). After placing a (DMSO) solution of test compound into a microtiter plate (96-well format) the nutrient broth containing the fungal material is added. The test plates are incubated at 24° C. and the inhibition of growth is determined photometrically 3-4 days after application.

[6] = system: Mycosphaerella arachidis (Cercospora arachidicola); test: Mycosphaerella arachidis (Cercospora arachidicola)/Liquid Culture (Early Leaf Spot); type: cell-based; details: 20 ppm; liquid culture, growth inhibition photometrically 4-5 days after application; compared to untreated control
Protocol: Mycosphaerella arachidis (Cercospora arachidicola)/Liquid Culture (Early Leaf Spot)
as §1, with “Conidia” for “Mycelial fragments”, “are” for “were”

SMILES | inhibition of growth at 20 ppm [1] | inhibition of growth at 20 ppm (Gaeumannomyces graminis) | inhibition of growth at 20 ppm [2] | melting point | inhibition of growth at 20 ppm [3] | inhibition of growth at 20 ppm [4] | inhibition of growth at 20 ppm (Fusarium culmorum) | inhibition of growth at 20 ppm [5] | inhibition of growth at 20 ppm (Sclerotinia sclerotiorum) | control of Mycosphaerella arachidis [6]
Cc1ccc2c(C3=NC(C)(C)C(C)(C)c4c(F)cccc43)n(C)nc2c1Cl [Compound E-27, 1-(7-chloro-2,6-dimethyl-indazol-3-yl)-5-fluoro-3,3,4,4-tetramethyl-isoquinoline] | ≥ 80% | ≥ 80% | ≥ 80% | 113 to 116 °C | ≥ 80% | ≥ 80% | ≥ 80% | ≥ 80% | ≥ 80% | –
Cn1nc2ccccc2c1C1=NC(C)(C)C(C)(C)c2c(F)cccc21 [Compound E-1, 5-fluoro-3,3,4,4-tetramethyl-1-(2-methylindazol-3-yl)isoquinoline] | ≥ 80% | ≥ 80% | ≥ 80% | 113 to 115 °C | ≥ 80% | ≥ 80% | ≥ 80% | ≥ 80% | ≥ 80% | at least 80%
Cc1ccc2c(C3=NC(C)(C)C(C)(C)c4c(F)cccc43)n(C)nc2c1 [Compound E-28, 1-(2,6-dimethylindazol-3-yl)-5-fluoro-3,3,4,4-tetramethyl-isoquinoline] | ≥ 80% | ≥ 80% | ≥ 80% | 137 to 138 °C | ≥ 80% | ≥ 80% | ≥ 80% | ≥ 80% | ≥ 80% | –
Cc1cccc2c(C3=NC(C)(C)C(C)(C)c4c(F)cccc43)n(C)nc12 [Compound E-9, 1-(2,7-dimethylindazol-3-yl)-5-fluoro-3,3,4,4-tetramethyl-isoquinoline] | ≥ 80% | ≥ 80% | ≥ 80% | – | ≥ 80% | ≥ 80% | ≥ 80% | ≥ 80% | ≥ 80% | –
Cc1ccc2c(C3=NC(C)(C)C(C)(C)c4c(F)cccc43)n(C)nc2c1C [Compound E-30, 5-fluoro-3,3,4,4-tetramethyl-1-(2,6,7-trimethylindazol-3-yl)isoquinoline] | ≥ 80% | – | ≥ 80% | 111 to 113 °C | ≥ 80% | ≥ 80% | – | ≥ 80% | ≥ 80% | –
Cn1nc2c(Cl)c(Cl)ccc2c1C1=NC(C)(C)C(C)(C)c2c(F)cccc21 [Compound E-23, 1-(6,7-dichloro-2-methyl-indazol-3-yl)-5-fluoro-3,3,4,4-tetramethyl-isoquinoline] | ≥ 80% | ≥ 80% | ≥ 80% | – | ≥ 80% | ≥ 80% | – | ≥ 80% | ≥ 80% | –
Cn1nc2c(Br)cccc2c1C1=NC(C)(C)Cc2ccccc21 [Compound E-5, 1-(7-bromo-2-methyl-indazol-3-yl)-3,3-dimethyl-4H-isoquinoline] | ≥ 80% | – | ≥ 80% | 161 to 162 °C | ≥ 80% | ≥ 80% | – | – | ≥ 80% | –
Cn1nc2c(Cl)cccc2c1C1=NC(C)(C)C(C)(C)c2c(F)cccc21 [Compound E-22, 1-(7-chloro-2-methyl-indazol-3-yl)-5-fluoro-3,3,4,4-tetramethyl-isoquinoline] | ≥ 80% | – | ≥ 80% | 45 to 47 °C | ≥ 80% | ≥ 80% | ≥ 80% | – | – | –
Cn1nc2c(Br)cccc2c1C1=NC(C)(C)C(C)(C)c2c(F)cccc21 [Compound E-8, 1-(7-bromo-2-methyl-indazol-3-yl)-5-fluoro-3,3,4,4-tetramethyl-isoquinoline] | ≥ 80% | – | ≥ 80% | – | ≥ 80% | ≥ 80% | – | ≥ 80% | ≥ 80% | –
